Assay results: patent US12589143B2, “Human anti-PD-L1 peptide vaccines and methods of their use” (priority 2019, dated 2026)
Several values for one entry are separate records, joined by “and”; a condition that tells them apart may be missing. Identical values can stand only once. Where no end group is shown, it is not given here.

Test system: MVF-PD-L1 peptide immunogen
Experiment: Immunogenicity in Balb/c mice, experiment 1 (CT26 WT): ELISA of sera vs each MVF-PD-L1 peptide immunogen
Assay type: in vivo
Details: for Immunogenicity (titers) 1′ Conc. 1:: Balb/c mice
Method: Immunogenicity of MVF-PD-L1 B-cell epitopes. New Zealand White rabbits were immunized with 1 mg of each MVF-peptide immunogens dissolved in dd H2O emulsified (1:1) in Montanide ISA 720 vehicle (Seppic) with 333 μg of N-acetylglucosamine-3yl-acetyl-1-alanyl-d-isoglutamine (nor-MDP). Rabbits were boosted with the same doses at 3-week's intervals. Blood was collected via the central auricular artery in rabbits. Blood was collected weekly (1Y+3, 2Y+1, 2Y+2,2Y+3, 3Y+1, 3Y+2 and sera tested for antibody titers by ELISA using the immunogens MVF-PD-L1 peptides. Sera (terminal) from rabbit (3Y+3) immunized with MVF-PD-1 peptide immunogens were tested individually versus the immunogen by ELISA. 200 ng/well peptide were used in duplicates to coat the ELISA plates. Titers are defined as the highest dilution of sera with an absorbance value of 0.2 after subtracting the blank.
FIGS. 5A, 5B, 5C, and 5D show the experimental scheme to test the immunization with PD-L1 in Balb/c mice. […] Balb/c mice 6-8 weeks old, were immunized with MVF-peptide immunogens emulsified in ISA 720 with nor-MDP three times and three weeks apart. Mice were immunized with MVF-PD-L1 vaccine constructs [PD-L1(36-53), PD-L1(50-67), PD-L1(95-112), PD-L1(130-147)] prior to tumor challenge. Blood was collected weekly and sera tested for antibody titers by ELISA. Two weeks after the third immunization (3Y), the mice were engrafted with CT26 WT tumor cells 10^5 per mouse Control mice were treated twice weekly with PBS as negative control and twice weekly with anti-mPD-L1 mAb (10F.9G2) as positive control starting 2 days after tumor challenge. Tumor growths were observed twice weekly and measured by calipers.
Immunogenicity of MVF-PD-L1 peptides in BALB/c mice immunized with various peptide constructs. Sera collected weekly were tittered against each individual MVF-PD-L1 peptide immunogen. The Pink bar refers to titers versus PD-L1 130 and the red bar refers to titers versus PD-1 (92-110).
In order to verify the efficacy of the PD-L1 epitope vaccines in vivo in the CT26 carcinoma cell line, Balb/c mice (10 mice/group) were immunized with 100 μg each of MVF-PD-L1 (36-53), MVF-PD-L1 (50-67), MVF-PD-L1 (95-112) and MVF-PD-L1 (130-147) emulsified with nor-MDP and Montanide 720 (1:1 ratio) SCHEME 1A (FIG. 5A). As detailed in SCHEME 1A-D (FIGS. 5A, 5B, 5C, and 5D), mice were immunized 3 times at 3 weeks intervals. […] All PD-L1 epitopes elicited high titers of PD-L1 anti-peptide antibodies by ELISA. […] We also investigated the combination of PD-1(92-110) with PD-L1-130-147.
For each peptide, vaccine antibodies were raised in New Zealand white rabbits, purchased from Charles River Laboratories (Wilmington, MA, USA). Rabbits were immunized with 1 mg of MVF chimeric peptide emulsified in Montanide ISA 720 (Seppic, Paris, France) and boosted 3 times at three week intervals. For mouse experiments, mice, 6-8 weeks old, were immunized with 0.1 mg of peptide emulsified in ISA720 (1:1 ratio). Mice were boosted with the respective doses at 3-week intervals. Blood was then collected and sera were tested for antibody titers. Sera were collected weekly and peptide vaccine antibodies were purified by affinity chromatography using a protein A/G column and the concentration was measured using Spectrophometer. All experiments were performed in accordance with the U.S. Public Health Service Policy on Humane Care and Use of Laboratory animals and approved by the Ohio State University Institutional Animals Care and Use Committee, detailed in the accepted protocol.
6-8 weeks old BALB/c mice (Charles River, Wilmington, MA) were used as standard animal models. Mouse CT26 colon carcinoma cell line was purchased from American Type Culture Collection Cells and were regularly cultured in RPMI1640 medium containing 10% FBS. CT26/HER2 cells were kindly provided by M. Penichet. Vaccines were dissolved in sterile water and emulsified in Montanide ISA 720 (1:1). […]

Question: Which results are given for “KLLSLIKGVIVHRLEGVEGPSLFVHGEEDLKVQHSSYRQR (KLLSLIKGVIVHRLEGVEGPSLFVHGEEDLKVQHSSYRQR-NH2) [PD-L1(50)]”?
Answer: Immunogenicity (titers) 1′ Conc. 1: (bleed 1Y + 3): 6400; Immunogenicity (titers) 1′ Conc. 1: (bleed 2Y + 1): 12800; Immunogenicity (titers) 1′ Conc. 1: (bleed 2Y + 2): 12800; Immunogenicity (titers) 1′ Conc. 1: (bleed 2Y + 3): 12800; Immunogenicity (titers) 1′ Conc. 1: (bleed 3Y + 1): 128000; Immunogenicity (titers) 1′ Conc. 1: (bleed 3Y + 2): 128000; Immunogenicity (titers) 1′ Conc. 1: (bleed 3Y + 3): 128000; ELISA absorbance of sera (bleed 1Y + 3 (1to100), dilution 100, bleed 1Y + 3): 1.459 and 1.424; ELISA absorbance of sera (bleed 1Y + 3 (1to100), dilution 200, bleed 1Y + 3): 1.338 and 1.282; ELISA absorbance of sera (bleed 1Y + 3 (1to100), dilution 400, bleed 1Y + 3): 1.131 and 1.099; ELISA absorbance of sera (bleed 1Y + 3 (1to100), dilution 800, bleed 1Y + 3): 0.878 and 0.852; ELISA absorbance of sera (bleed 1Y + 3 (1to100), dilution 1,600, bleed 1Y + 3): 0.639 and 0.588; ELISA absorbance of sera (bleed 1Y + 3 (1to100), dilution 3,200, bleed 1Y + 3): 0.398 and 0.365; ELISA absorbance of sera (bleed 1Y + 3 (1to100), dilution 6,400, bleed 1Y + 3): 0.239 and 0.213; ELISA absorbance of sera (bleed 1Y + 3 (1to100), dilution 12,800, bleed 1Y + 3): 0.143 and 0.129; ELISA absorbance of sera (bleed 2Y + 1 (1to100), dilution 100, bleed 2Y + 1): 1.243 and 1.292; ELISA absorbance of sera (bleed 2Y + 1 (1to100), dilution 200, bleed 2Y + 1): 1.279 and 1.274; ELISA absorbance of sera (bleed 2Y + 1 (1to100), dilution 400, bleed 2Y + 1): 1.241 and 1.170; ELISA absorbance of sera (bleed 2Y + 1 (1to100), dilution 800, bleed 2Y + 1): 1.127 and 1.002; ELISA absorbance of sera (bleed 2Y + 1 (1to100), dilution 1,600, bleed 2Y + 1): 0.923 and 0.887; ELISA absorbance of sera (bleed 2Y + 1 (1to100), dilution 3,200, bleed 2Y + 1): 0.721 and 0.666; ELISA absorbance of sera (bleed 2Y + 1 (1to100), dilution 6,400, bleed 2Y + 1): 0.480 and 0.471; ELISA absorbance of sera (bleed 2Y + 1 (1to100), dilution 12,800, bleed 2Y + 1): 0.332 and 0.274; ELISA absorbance of sera (bleed 2Y + 2 (1to100), dilution 100): 1.298 and 1.343; ELISA absorbance of sera (bleed 2Y + 2 (1to100), dilution 200): 1.310 and 1.286; ELISA absorbance of sera (bleed 2Y + 2 (1to100), dilution 400): 1.241 and 1.190; ELISA absorbance of sera (bleed 2Y + 2 (1to100), dilution 800): 1.144 and 1.093; ELISA absorbance of sera (bleed 2Y + 2 (1to100), dilution 1,600): 0.964 and 0.893; ELISA absorbance of sera (bleed 2Y + 2 (1to100), dilution 3,200): 0.741 and 0.670; ELISA absorbance of sera (bleed 2Y + 2 (1to100), dilution 6,400): 0.519 and 0.487; ELISA absorbance of sera (bleed 2Y + 3 (1to1k), dilution 100): 1.054 and 1.076; ELISA absorbance of sera (bleed 2Y + 3 (1to1k), dilution 200): 1.008 and 1.012; ELISA absorbance of sera (bleed 2Y + 3 (1to1k), dilution 400): 0.952 and 0.915; ELISA absorbance of sera (bleed 2Y + 3 (1to1k), dilution 800): 0.827 and 0.819; ELISA absorbance of sera (bleed 2Y + 3 (1to1k), dilution 1,600): 0.708 and 0.703; ELISA absorbance of sera (bleed 2Y + 3 (1to1k), dilution 3,200): 0.534 and 0.514; ELISA absorbance of sera (bleed 2Y + 3 (1to1k), dilution 6,400): 0.351 and 0.332; ELISA absorbance of sera (bleed 3Y + 1 (1to1k), dilution 100, bleed 3Y + 1): 1.191 and 1.215; ELISA absorbance of sera (bleed 3Y + 1 (1to1k), dilution 200, bleed 3Y + 1): 1.138 and 1.143; ELISA absorbance of sera (bleed 3Y + 1 (1to1k), dilution 400, bleed 3Y + 1): 1.076 and 1.034; ELISA absorbance of sera (bleed 3Y + 1 (1to1k), dilution 800, bleed 3Y + 1): 0.935 and 0.925; ELISA absorbance of sera (bleed 3Y + 1 (1to1k), dilution 1,600, bleed 3Y + 1): 0.800 and 0.794; ELISA absorbance of sera (bleed 3Y + 1 (1to1k), dilution 3,200, bleed 3Y + 1): 0.603 and 0.581; ELISA absorbance of sera (bleed 3Y + 1 (1to1k), dilution 6,400, bleed 3Y + 1): 0.397 and 0.375; ELISA absorbance of sera (bleed 3Y + 2 (1to1k), dilution 100, bleed 3Y + 2): 1.608 and 1.586; ELISA absorbance of sera (bleed 3Y + 2 (1to1k), dilution 200, bleed 3Y + 2): 1.503 and 1.479; ELISA absorbance of sera (bleed 3Y + 2 (1to1k), dilution 400, bleed 3Y + 2): 1.384 and 1.401; ELISA absorbance of sera (bleed 3Y + 2 (1to1k), dilution 800, bleed 3Y + 2): 1.185 and 1.213; ELISA absorbance of sera (bleed 3Y + 2 (1to1k), dilution 1,600, bleed 3Y + 2): 0.961 and 0.959; ELISA absorbance of sera (bleed 3Y + 2 (1to1k), dilution 3,200, bleed 3Y + 2): 0.684 and 0.694; ELISA absorbance of sera (bleed 3Y + 2 (1to1k), dilution 6,400, bleed 3Y + 2): 0.462; ELISA absorbance of sera (bleed 3Y + 3 (1to1k), dilution 100, bleed 3Y + 3): 1.740 and 1.779; ELISA absorbance of sera (bleed 3Y + 3 (1to1k), dilution 200, bleed 3Y + 3): 1.596 and 1.638; ELISA absorbance of sera (bleed 3Y + 3 (1to1k), dilution 400, bleed 3Y + 3): 1.445 and 1.469; ELISA absorbance of sera (bleed 3Y + 3 (1to1k), dilution 800, bleed 3Y + 3): 1.181 and 1.217; ELISA absorbance of sera (bleed 3Y + 3 (1to1k), dilution 1,600, bleed 3Y + 3): 0.867 and 0.967; ELISA absorbance of sera (bleed 3Y + 3 (1to1k), dilution 3,200, bleed 3Y + 3): 0.621 and 0.629; ELISA absorbance of sera (bleed 3Y + 3 (1to1k), dilution 6,400, bleed 3Y + 3): 0.359
